Experimental data taken from PMC4675670 (Science translational medicine, 2015).

Key:
[1] = biological target: cytoplasmic prolyl-tRNA synthetase (PfcPRS, PF3D7_1213800) (Plasmodium falciparum, UniProt Q8I5R7, L482H); assay: biochemical assay on purified recombinant mutant enzyme
[2] = biological target: cytoplasmic prolyl-tRNA synthetase (PfcPRS, PF3D7_1213800) (Plasmodium falciparum, UniProt Q8I5R7); assay: biochemical assay on purified recombinant enzyme
[3] = biological target: human EPRS (bifunctional glutamyl-prolyl-tRNA synthetase) (Homo sapiens, UniProt P07814); assay: biochemical assay
Sequence of human EPRS (bifunctional glutamyl-prolyl-tRNA synthetase) (P07814 whole entry): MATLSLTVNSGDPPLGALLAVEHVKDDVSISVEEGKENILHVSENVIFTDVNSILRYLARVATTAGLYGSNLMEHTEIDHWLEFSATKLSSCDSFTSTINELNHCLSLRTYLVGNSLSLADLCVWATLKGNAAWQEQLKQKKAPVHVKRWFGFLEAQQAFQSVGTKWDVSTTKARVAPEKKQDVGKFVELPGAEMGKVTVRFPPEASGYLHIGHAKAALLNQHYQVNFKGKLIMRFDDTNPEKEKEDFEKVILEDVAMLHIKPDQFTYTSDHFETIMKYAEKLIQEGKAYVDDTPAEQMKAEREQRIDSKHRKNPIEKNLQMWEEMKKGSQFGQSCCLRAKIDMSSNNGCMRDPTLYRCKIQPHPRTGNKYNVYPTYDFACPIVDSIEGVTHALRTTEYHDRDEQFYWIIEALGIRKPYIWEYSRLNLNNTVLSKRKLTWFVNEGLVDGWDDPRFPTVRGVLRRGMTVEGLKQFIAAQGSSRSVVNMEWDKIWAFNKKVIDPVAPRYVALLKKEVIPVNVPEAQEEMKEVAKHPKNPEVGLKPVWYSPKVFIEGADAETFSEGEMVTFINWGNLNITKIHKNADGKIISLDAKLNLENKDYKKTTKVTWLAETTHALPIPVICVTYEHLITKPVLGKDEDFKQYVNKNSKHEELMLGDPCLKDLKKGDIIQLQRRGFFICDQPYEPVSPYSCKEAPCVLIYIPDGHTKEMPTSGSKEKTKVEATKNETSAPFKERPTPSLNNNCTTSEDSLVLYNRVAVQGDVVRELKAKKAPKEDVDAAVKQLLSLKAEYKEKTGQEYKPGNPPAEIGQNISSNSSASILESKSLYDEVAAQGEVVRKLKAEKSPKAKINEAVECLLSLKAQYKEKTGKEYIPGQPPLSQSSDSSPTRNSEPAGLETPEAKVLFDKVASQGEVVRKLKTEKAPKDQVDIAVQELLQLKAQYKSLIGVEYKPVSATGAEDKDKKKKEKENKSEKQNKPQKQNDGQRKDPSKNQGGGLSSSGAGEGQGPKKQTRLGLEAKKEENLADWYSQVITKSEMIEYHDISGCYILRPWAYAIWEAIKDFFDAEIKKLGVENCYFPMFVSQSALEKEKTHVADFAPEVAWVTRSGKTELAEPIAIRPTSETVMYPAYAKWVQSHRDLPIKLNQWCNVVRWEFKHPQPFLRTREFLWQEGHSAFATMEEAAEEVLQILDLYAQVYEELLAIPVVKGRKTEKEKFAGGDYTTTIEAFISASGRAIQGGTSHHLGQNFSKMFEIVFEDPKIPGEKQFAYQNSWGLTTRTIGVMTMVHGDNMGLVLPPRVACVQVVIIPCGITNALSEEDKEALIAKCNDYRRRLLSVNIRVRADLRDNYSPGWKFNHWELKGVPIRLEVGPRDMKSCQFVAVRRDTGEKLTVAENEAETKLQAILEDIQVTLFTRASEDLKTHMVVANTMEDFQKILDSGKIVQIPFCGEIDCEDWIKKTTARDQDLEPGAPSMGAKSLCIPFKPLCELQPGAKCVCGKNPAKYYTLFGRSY

O=c1c2cc(Cl)c(Br)cc2ncn1C[C@@H](O)C[C@H]1NCCC[C@@H]1O [halofuginol]
Ki [1]: 1120 nM
Ki [2]: 71.1 nM
Ki [3]: 65.7 nM
